Target: T1, purified CD26 (Homo sapiens, UniProt P27487)
T1 construct: made in house
Assay: Conversion of peptide prodrugs to parent compound by purified CD26 (HPLC)
Format: biochemical
Conditions: for Conversion % to parent compound by purified CD26, 1 h / Conversion % to parent compound by purified CD26, 4 h / Conversion % to parent compound by purified CD26, 24 h: Table 1
Experimental: To reveal whether CD26 recognizes such synthetic di/tripeptide derivatives of lipophilic nucleoside analogues as a substrate, 50 μM CAM-405 or CAM-431 was exposed to 5.7 mUnits of purified CD26, and the conversion of CAM-405 or CAM-431 to respectively CAM-212 or CAM-403 (Val-NAP-TSAO) was recorded in function of incubation time by HPLC analysis. […] Within the first 10 min of the reaction, at least 20% of CAM-405 had been converted to CAM-212, fifty percent of the TSAO dipeptide derivative was converted to CAM-212 within 30 min of the reaction and ˜67% of CAM-405 was hydrolyse after 60 min. Thus, the reaction rate started already to slow down after the first 10 min of drug exposure (FIG. 2). Most likely, the release of the reaction product Val-Pro dose-dependently feed-back inhibited the CD26-catalysed dipeptidyl-peptidase reaction. […] Thus, in the presence of 50 μM CAM-405, hydrolysis of 50% of CAM-405 to CAM-212 results in the appearance of 25 μM Val-Pro, that is a concentration that (feed-back) inhibits the CD26 reaction by ˜50%. These findings explain why the CD26-catalysed reaction levels-off shortly after the start of the exposure of the drug to CD26. […] Thus, a further level of modulation of the rate of prodrug release can be introduced by choosing a dipeptide moiety that competes for the active site of CD26, until the dipeptide has diffused from the tissue wherein CD26 is present. The inhibitory activity of any dipeptide can be evaluated by the above mentioned assay.
The conversion rate in function of time is given in Table 1 for NAP-TSAO-dipeptides where the dipeptide consists of: Val-Pro, Val-D-Pro, Asp-Pro, Lys-Pro, Tyr-Pro, Gly-Pro, Val-4-hydroxyPro, Gly-3,4-dihydroxyPro, but also Val-Gly, Val-Ala, Val-Leu and Val-Phe. It is clear that the conversion rate to the parent NAP-TSAO differs depending the nature of the dipeptide. Also, when the terminal amine of the dipeptide has been blocked by a lipophilic group (i.e. methyl, Z or Fmoc), the prodrug looses measurable substrate activity for CD26.
The conversion rate in function of time is given in Table 2 for tetrapeptide NAP-TSAO compounds where the tetrapeptide consists of: Val-Pro-Val-Pro [SEQ ID no:6] (CAM 467), Val-Ala-Val-Pro [SEQ ID no:7] (CAM 473) or Lys-Pro-Asp-Pro [SEQ ID no:8] (CAM 477). […] Only traces of dipeptide prodrug (CAM 405) is seen as intermediate in the conversion of the tetrapeptide CAM 473 to NAP-TSAO.
All enzyme activity assays were performed in Eppendorf tubes on a heating block at 37° C. To each tube were added 32 μl CD26 (at a final concentration of 1.5 milliUnits) or 10 μl foetal bovine serum (BS) (final concentration: 2.5% BS in PBS; preheated at 56° C. for 30 min) or 10 μl human serum (HS) (final concentration: 2.5% HS in PBS), 40 μl of appropriate concentrations of inhibitor (Diprotin A) solution in PBS (for the exact concentrations, see the legend to FIG. 5), CAM-405 (the substrate of the reaction) at […] (final concentration) and PBS to reach a total volume of 400 μl. The pH of the reaction mixture was 7.5, which is virtually identical to the physiological pH of plasma. The reaction was started by the addition of the enzyme or serum and carried out at 37° C. After 5 hr, 100 μl reaction mixture was taken from the Eppendorf tube and added to 200 μl cold methanol to precipitate the proteins. After 10 min standing on ice, the contents of the tubes were centrifuged and the supernatants analysed by HPLC on a reverse phase column (RP-8, Merck Laboratories). CAM-405 was separated from CAM-212 (the product of the reaction) by a gradient of 50 mM sodium phosphate+5 mM heptane sulfonic acid pH 3.2 (Buffer A) and acetonitrile (Buffer B) as follows: Buffer A: 98%+2% Buffer B, 2 min; linear gradient to 20% Buffer. […]

[1] = Table 2, purified CD26 1.5 mUnits, 4 h
[2] = Table 2, purified CD26 1.5 mUnits, 24 h
[3] = Table 2, purified CD26 1.5 mUnits, 1 h
[4] = Table 5, purified CD26 1.5 mUnits, 1 h
[5] = Table 5, purified CD26 1.5 mUnits, 4 h
[6] = Table 5, purified CD26 1.5 mUnits, 24 h

T1 sequence (P27487 whole entry): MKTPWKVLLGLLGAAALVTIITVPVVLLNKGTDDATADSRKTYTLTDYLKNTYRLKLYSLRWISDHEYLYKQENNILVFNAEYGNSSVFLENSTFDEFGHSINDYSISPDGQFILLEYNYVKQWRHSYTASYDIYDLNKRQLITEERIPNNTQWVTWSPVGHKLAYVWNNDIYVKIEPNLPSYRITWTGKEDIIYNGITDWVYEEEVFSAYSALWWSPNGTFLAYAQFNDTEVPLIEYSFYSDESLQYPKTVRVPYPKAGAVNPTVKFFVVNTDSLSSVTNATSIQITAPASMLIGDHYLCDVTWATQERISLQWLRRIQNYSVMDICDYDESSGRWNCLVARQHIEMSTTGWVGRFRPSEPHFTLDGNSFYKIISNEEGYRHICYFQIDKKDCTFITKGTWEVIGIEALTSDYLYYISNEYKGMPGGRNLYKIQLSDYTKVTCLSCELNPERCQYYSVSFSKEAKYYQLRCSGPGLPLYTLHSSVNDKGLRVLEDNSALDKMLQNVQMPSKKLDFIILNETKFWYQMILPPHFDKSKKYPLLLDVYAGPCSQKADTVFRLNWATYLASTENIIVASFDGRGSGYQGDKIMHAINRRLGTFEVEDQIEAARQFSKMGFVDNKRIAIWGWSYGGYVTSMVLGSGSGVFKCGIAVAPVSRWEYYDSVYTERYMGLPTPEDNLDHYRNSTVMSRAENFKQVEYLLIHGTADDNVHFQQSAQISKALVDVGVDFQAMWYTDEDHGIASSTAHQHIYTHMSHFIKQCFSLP

Row | Molecule | Conversion % to parent compound by purified CD26, 1 h (purified CD26 1.5 mUnits, 1 h) | Conversion % to parent compound by purified CD26, 4 h (purified CD26 1.5 mUnits, 4 h) | Conversion % to parent compound by purified CD26, 24 h (purified CD26 1.5 mUnits, 24 h) | Conversion / substrate activity with purified CD26, in words | % conversion to parent compound by purified CD26, 4 h [1] | % conversion to parent compound by purified CD26, 24 h [2] | also measured
1 | Cc1cn(C2OC(CO[Si](C)(C)C(C)(C)C)C3(OS(=O)(=O)C=C3N)C2O[Si](C)(C)C(C)(C)C)c(=O)n(CCCNC(=O)[C@@H]2CC(O)CN2C(=O)[C@@H](N)C(C)C)c1=O (stereo partly shown) [CAM-163, H-Val-4HyPro-NAP-TSAO] | 4.1% | 18% | 53% |  |  |  | 
2 | Cc1cn(C2OC(CO[Si](C)(C)C(C)(C)C)C3(OS(=O)(=O)C=C3N)C2O[Si](C)(C)C(C)(C)C)c(=O)n(CCCNC(=O)[C@@H](NC(=O)OCc2ccccc2)C(C)C)c1=O (stereo partly shown) [CAM-404, Z-Val-NAP-TSAO] | 0% | 0% | 0% |  |  |  | 
3 | CNC(C(=O)N1CCCC1C(=O)NC(C(=O)NCCCn1c(=O)c(C)cn(C2OC(CO[Si](C)(C)C(C)(C)C)C3(OS(=O)(=O)C=C3N)C2O[Si](C)(C)C(C)(C)C)c1=O)C(C)C)C(C)C (stereo not drawn) [CAM-407, Me-NH-Val-Pro-Val-NHP-TSAO] | 0% | 0% | 0% | completely lacked substrate activity |  |  | 
4 | Cc1cn(C2OC(CO[Si](C)(C)C(C)(C)C)C3(OS(=O)(=O)C=C3N)C2O[Si](C)(C)C(C)(C)C)c(=O)n(CCCNC(=O)[C@@H]2CCCN2C(=O)[C@@H](N)CC(=O)O)c1=O (stereo partly drawn) [CAM-435, H-Asp-Pro-NAP-TSAO] |  | 7.9% | 30% |  | 7.9% | 30% | 
5 | Cc1cn(C2OC(CO[Si](C)(C)C(C)(C)C)C3(OS(=O)(=O)C=C3N)C2O[Si](C)(C)C(C)(C)C)c(=O)n(CCCNC(=O)[C@@H]2CCCN2C(=O)[C@@H](N)CCCCN)c1=O (stereo partly drawn) [CAM-437, H-Lys-Pro-NAP-TSAO] |  | 85% | 99% | completely removed | 85% | 99% | 
6 | Cc1cn(C2OC(CO[Si](C)(C)C(C)(C)C)C3(OS(=O)(=O)C=C3N)C2O[Si](C)(C)C(C)(C)C)c(=O)n(CCCNC(=O)[C@@H]2CCCN2C(=O)[C@@H](N)Cc2ccc(O)cc2)c1=O (stereo partly drawn) [CAM-456, H-Tyr-Pro-NAP-TSAO] | 43% | 66% | 79% |  |  |  | 
7 | Cc1cn(C2OC(CO[Si](C)(C)C(C)(C)C)C3(OS(=O)(=O)C=C3N)C2O[Si](C)(C)C(C)(C)C)c(=O)n(CCCNC(=O)[C@@H]2CCCN2C(=O)CN)c1=O (stereo partly drawn) [CAM-458, H-Gly-Pro-NAP-TSAO] | 5% | 20% | 58% |  |  |  | 
8 | Cc1cn(C2OC(CO[Si](C)(C)C(C)(C)C)C3(OS(=O)(=O)C=C3N)C2O[Si](C)(C)C(C)(C)C)c(=O)n(CCCNC(=O)C2CCCN2C(=O)C(NC(=O)C2CCCN2C(=O)C(NC(=O)OCc2ccccc2)C(C)C)C(C)C)c1=O (stereo not drawn) [CAM-466, Z-Val-Pro-Val-Pro-NAP-TSAO] |  |  |  |  | 0% | 0% | % conversion to parent compound by purified CD26, 1 h [3]: 0%
9 | Cc1cn(C2OC(CO[Si](C)(C)C(C)(C)C)C3(OS(=O)(=O)C=C3N)C2O[Si](C)(C)C(C)(C)C)c(=O)n(CCCNC(=O)C2CCCN2C(=O)C(NC(=O)C2CCCN2C(=O)C(N)C(C)C)C(C)C)c1=O (stereo not drawn) [CAM-467, H-Val-Pro-Val-Pro-NAP-TSAO] |  |  |  | quickly converted | 86% | 88% | % conversion to parent compound by purified CD26, 1 h [3]: 43%
10 | COc1cccc2c1C(=O)c1c(O)c3c(c(O)c1C2=O)CC(O)(C(=O)CO)CC3OC1CC(NC(=O)C2CCCN2C(=O)C(NC(=O)OCC2c3ccccc3-c3ccccc32)C(C)C)C(O)C(C)O1 (stereo not drawn) [CAM-468, Fmoc-Val-Pro-Doxorubicin] |  |  |  | no conversion |  |  | % conversion to parent compound by purified CD26, 1 h [4]: 0%; % conversion to parent compound by purified CD26, 4 h [5]: 0%; % conversion to parent compound by purified CD26, 24 h [6]: 0%
11 | COc1cccc2c1C(=O)c1c(O)c3c(c(O)c1C2=O)CC(O)(C(=O)CO)CC3OC1CC(NC(=O)C2CCCN2C(=O)C(N)C(C)C)C(O)C(C)O1 (stereo not drawn) [CAM-469, H-Val-Pro-Doxorubicin] |  |  |  | very efficiently converted |  |  | % conversion to parent compound by purified CD26, 1 h [4]: 78%; % conversion to parent compound by purified CD26, 4 h [5]: 95%; % conversion to parent compound by purified CD26, 24 h [6]: 97%
12 | Cc1cn(C2OC(CO[Si](C)(C)C(C)(C)C)C3(OS(=O)(=O)C=C3N)C2O[Si](C)(C)C(C)(C)C)c(=O)n(CCCNC(=O)C2CCCN2C(=O)C(NC(=O)C(C)NC(=O)C(N)C(C)C)C(C)C)c1=O (stereo not drawn) [CAM-473, H-Val-Ala-Val-Pro-NAP-TSAO] |  |  |  | occurs faster than with the Val-Ala-NAP-TSAO | 54% | 70% | % conversion to parent compound by purified CD26, 1 h [3]: 12%
13 | CC(C)[C@H](N)C(=O)N1CCC[C@H]1C(=O)Nc1ccc2ncccc2c1 [CAM-475, H-Val-Pro-6-Aminoquinoline] |  |  |  | complete conversion within 1 hr |  |  | % conversion to parent compound by purified CD26, 1 h [4]: 99%; % conversion to parent compound by purified CD26, 4 h [5]: 100%; % conversion to parent compound by purified CD26, 24 h [6]: 100%
14 | Cc1cn(C2OC(CO[Si](C)(C)C(C)(C)C)C3(OS(=O)(=O)C=C3N)C2O[Si](C)(C)C(C)(C)C)c(=O)n(CCCNC(=O)C2CCCN2C(=O)C(CC(=O)O)NC(=O)C2CCCN2C(=O)C(N)CCCCN)c1=O (stereo not drawn) [CAM-477, H-Lys-Pro-Asp-Pro-NAP-TSAO] |  |  |  | clearly occurs in two steps | 6.0% | 26% | % conversion to parent compound by purified CD26, 1 h [3]: 2.1%; % conversion to dipeptide intermediate by purified CD26, 1 h (Table 2 footnote a, purified CD26 1.5 mUnits, 1 h): 88%; % conversion to dipeptide intermediate by purified CD26, 4 h (Table 2 footnote a, purified CD26 1.5 mUnits, 4 h): 86%; % conversion to dipeptide intermediate by purified CD26, 24 h (Table 2 footnote a, purified CD26 1.5 mUnits, 24 h): 74%
15 | H-Gly-3.4Hypro-NAP-TSAO [CAM-465] |  | 0% | 0% |  |  |  | 
16 | H-Val-Pro-Val-NHP-TSAO [CAM-411] | 33% | 60% |  |  |  |  | 
17 | NH2-Val-HyPro(Bzl)-NAP-TSAO [CAM-462] |  | 0% | 0% |  |  |  | 
